Where two headings read alike, the source gives them in different places.
What was measured:
RORγ = target: T1, RORγ (UniProt P51449); experiment: RORγ Gal4 Reporter Gene Assay in 293T cells (firefly and renilla luciferase); assay type: cell-based, human
T1 sequence (P51449 1-518): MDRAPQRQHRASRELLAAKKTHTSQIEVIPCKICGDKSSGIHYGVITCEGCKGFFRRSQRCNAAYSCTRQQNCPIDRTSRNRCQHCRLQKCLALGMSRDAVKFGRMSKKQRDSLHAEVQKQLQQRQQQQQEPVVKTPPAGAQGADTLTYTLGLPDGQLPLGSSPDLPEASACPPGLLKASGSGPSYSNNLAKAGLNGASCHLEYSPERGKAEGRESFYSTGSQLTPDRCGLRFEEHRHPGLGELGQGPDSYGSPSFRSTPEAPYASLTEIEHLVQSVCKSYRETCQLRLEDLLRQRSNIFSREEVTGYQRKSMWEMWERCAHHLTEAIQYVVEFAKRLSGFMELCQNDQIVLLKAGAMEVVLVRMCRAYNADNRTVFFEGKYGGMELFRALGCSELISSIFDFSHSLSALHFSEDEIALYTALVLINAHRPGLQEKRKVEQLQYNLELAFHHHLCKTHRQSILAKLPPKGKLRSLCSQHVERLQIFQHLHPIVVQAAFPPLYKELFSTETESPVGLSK

[1] = target: T2, RORγ ligand binding domain (LBD) (Homo sapiens, UniProt P51449); experiment: TR-FRET Activity Assay (ligand sensing, RORγ-LBD / coactivator peptide interaction, LANCE); assay type: biochemical
T2 construct: made in house; host or cells: E. coli BL-21 (BL3), vector pDEST15
T2 sequence (P51449 269-508 limits assumed): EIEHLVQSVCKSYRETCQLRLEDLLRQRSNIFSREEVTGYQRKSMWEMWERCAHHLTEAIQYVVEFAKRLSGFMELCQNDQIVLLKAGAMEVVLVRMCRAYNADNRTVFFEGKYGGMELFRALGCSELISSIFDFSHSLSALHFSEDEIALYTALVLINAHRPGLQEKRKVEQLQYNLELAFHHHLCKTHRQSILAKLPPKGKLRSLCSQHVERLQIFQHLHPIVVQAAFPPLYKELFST

[2] = second value of the cell, Gal4 reporter gene assay in 293T cells, firefly luciferase
[3] = third value of the cell, Gal4 reporter gene assay in 293T cells, renilla normalised luciferase
[4] = first value of the cell FRET/FF/REN, TR-FRET activity assay, read-out: pIC50 (FRET) (converted)

Row | Structure (SMILES) | pIC50 (FF) (RORγ; [2]) | pIC50 (REN) (RORγ; [3]) | IC50 [1, 4] | pIC50 (FF) (RORγ) | pIC50 (REN) (RORγ) | IC50 [1]
1 | Cc1c(C(=O)NCC2(O)CCS(=O)(=O)CC2)cc(-c2ccc(S(=O)(=O)NC(C)(C)C)c3ccccc23)n1CC1CCCCC1 [17/268] | 7.7 | 7.8 | 794 nM | – | – | –
2 | Cc1c(C(=O)NCCN2CCOCC2)cc(-c2ccc(S(=O)(=O)NC(C)(C)C)c3ccccc23)n1CC1CCCCC1 [17/269] | – | – | – | 6.0/6.9/7.0 | 6.0/6.9/7.0 | 1000 nM
3 | Cc1c(C(=O)N2CC3(CCS(=O)(=O)CC3)C2)cc(-c2ccc(S(=O)(=O)NC(C)(C)C)c3ccccc23)n1CC1CCCCC1 [17/270] | 7.8 | 8.0 | 631 nM | – | – | –
4 | Cc1c(C(=O)N[C@H]2C[C@H](C(=O)O)C2)cc(-c2ccc(S(=O)(=O)NCC(F)(F)F)c3ccccc23)n1CC1CCCCC1 [17/271] | 7.1 | 7.1 | 794 nM | – | – | –
5 | Cc1c(-c2cc(C(=O)N[C@H]3C[C@H](C(=O)O)C3)c(C)n2CC2CCCCC2)ccc(S(=O)(=O)NC(C)(C)C)c1C [17/272] | 6.8 | 6.9 | 501 nM | – | – | –
6 | Cc1c(-c2cc(C(=O)NC3CCOCC3)c(C)n2CC2CCCCC2)ccc(S(=O)(=O)NC(C)(C)C)c1C [17/273] | 7.2 | 7.3 | 1580 nM | – | – | –
7 | Cc1c(S(=O)(=O)NC(C)(C)C)ccc(-c2cc(C(=O)NC3CCOCC3)c(C)n2CC2CCCCC2)c1Cl [17/274] | 7.9 | 7.9 | 251 nM | – | – | –
8 | Cc1c(S(=O)(=O)NC(C)(C)C)ccc(-c2cc(C(=O)N[C@H]3C[C@H](C(=O)O)C3)c(C)n2CC2CCCCC2)c1Cl [17/275] | 7.0 | 7.0 | 631 nM | – | – | –
9 | Cc1c(C(=O)NC2CCOCC2)cc(-c2ccc(S(=O)(=O)NC(C)(C)C)c(Cl)c2Cl)n1CC1CCCCC1 [17/276] | – | – | – | 6.8/7.9/8.0 | 6.8/7.9/8.0 | 158 nM
10 | Cc1c(C(=O)N[C@H]2C[C@H](C(=O)O)C2)cc(-c2ccc(S(=O)(=O)NC(C)(C)C)c(Cl)c2Cl)n1CC1CCCCC1 [17/277] | 7.2 | 7.2 | 398 nM | – | – | –
11 | Cc1c(C(=O)NCC(C)(C)O)cc(-c2ccc(S(=O)(=O)NC(C)(C)C)c3ccccc23)n1CC1CCC(F)(F)CC1 [17/278] | 7.0 | 7.0 | 2510 nM | – | – | –
12 | Cc1c(C(=O)N[C@H]2C[C@H](C(=O)O)C2)cc(-c2ccc(S(=O)(=O)NC(C)(C)C)c3c2OCCO3)n1CC1CCCCC1 [17/279] | < 4.7 | < 4.7 | 3160 nM | – | – | –
13 | Cc1c(C(=O)NC2CCOCC2)cc(-c2ccc(S(=O)(=O)NC(C)(C)C)c3c2CCCC3)n1CC1CCCCC1 [17/280] | 8.1 | 8.1 | 1000 nM | – | – | –
14 | Cc1c(C(=O)N[C@H]2C[C@H](C(=O)O)C2)cc(-c2ccc(S(=O)(=O)NC(C)(C)C)c3c2CCCC3)n1CC1CCCCC1 [17/281] | 7.7 | 7.7 | 1000 nM | – | – | –
15 | Cc1c(C(=O)NC2CCOCC2)cc(-c2ccc(S(=O)(=O)NC(C)(C)C)c3cccnc23)n1CC1CCCCC1 [17/282] | 6.6 | 6.7 | 2000 nM | – | – | –
16 | Cc1c(C(=O)NC2CCOCC2)cc(-c2ccc(S(=O)(=O)NC(C)(C)C)c3ncccc23)n1CC1CCCCC1 [17/283] | 6.7 | 6.8 | 1000 nM | – | – | –
17 | Cc1c(S(=O)(=O)NC(C)(C)C)ccc(-c2cc(C(=O)NCCC(C)(C)C(=O)O)c(C)n2CC2CCCCC2)c1OC(F)F [17/284] | 7.3 | 7.3 | 1260 nM | – | – | –
18 | Cc1c(S(=O)(=O)NC(C)(C)C)ccc(-c2cc(C(=O)NC3CCOCC3)c(C)n2CC2CCCCC2)c1OC(F)F [17/285] | 7.3 | 7.4 | 631 nM | – | – | –
19 | Cc1c(S(=O)(=O)NC(C)(C)C)ccc(-c2cc(C(=O)NCCC(C)(C)C(=O)O)c(C)n2CC2CCCCC2)c1C(F)(F)F [17/286] | 7.4 | 7.5 | 1260 nM | – | – | –
20 | Cc1c(S(=O)(=O)NC(C)(C)C)ccc(-c2cc(C(=O)NC3CCOCC3)c(C)n2CC2CCCCC2)c1C(F)(F)F [17/287] | 7.7 | 7.7 | 631 nM | – | – | –
21 | Cc1c(C(=O)NC2CCOCC2)cc(-c2ccc(S(=O)(=O)NC(C)(C)C)c(C(F)(F)F)c2Cl)n1CC1CCCCC1 [17/288] | 7.3 | 7.3 | 398 nM | – | – | –

Row | Structure (SMILES) | pIC50 (FF) (RORγ; [2]) | pIC50 (REN) (RORγ; [3]) | IC50 [1, 4] | pIC50 (FF) (RORγ) | pIC50 (REN) (RORγ) | IC50 [1]
22 | Cc1c(C(=O)NCCC(C)(C)C(=O)O)cc(-c2ccc(S(=O)(=O)NC(C)(C)C)c(C(F)(F)F)c2Cl)n1CC1CCCCC1 [17/289] | 7.1 | 7.2 | 1260 nM | – | – | –
23 | Cc1c(S(=O)(=O)NC(C)(C)C)ccc(-c2cc(C(=O)NCC3(O)CCS(=O)(=O)CC3)c(C)n2CC2CCCCC2)c1Cl [17/290] | 7.6 | 7.6 | 631 nM | – | – | –
24 | Cc1c(S(=O)(=O)NC(C)(C)C)ccc(-c2cc(C(=O)NCC(C)(C)O)c(C)n2CC2CCCCC2)c1Cl [17/291] | 7.6 | 7.7 | 398 nM | – | – | –
25 | Cc1c(C(=O)N[C@H]2C[C@H](C(=O)O)C2)cc(-c2cc(C(C)(C)C)nc(C3(C)CC3)c2)n1CC1CCCCC1 [17/292] | 7.5 | 7.4 | 1260 nM | – | – | –
26 | Cc1c(C(=O)N2CC3(COCC(=O)N3)C2)cc(-c2ccc(S(=O)(=O)NC(C)(C)C)c(C(F)(F)F)c2)n1CC1CCCCC1 [17/293] | 6.6 | 6.7 | 1260 nM | – | – | –
27 | Cc1c(C(=O)N2CC3(C2)NC(=O)CNC3=O)cc(-c2ccc(S(=O)(=O)NC(C)(C)C)c(C(F)(F)F)c2)n1CC1CCCCC1 [17/294] | < 4.7 | < 4.7 | 3160 nM | – | – | –
28 | Cc1c(C(=O)NC2CNC(=O)C23CCOCC3)cc(-c2ccc(S(=O)(=O)NC(C)(C)C)c(C(F)(F)F)c2)n1CC1CCCCC1 (stereo not drawn) [17/295] | 6.6 | 6.5 | 1000 nM | – | – | –
29 | Cc1c(C(=O)NC2CCOCC2)cc(-c2cc(Cl)cc(C3(C)CC3)c2)n1CC1CCCCC1 [17/296] | 7.0 | 7.1 | 251 nM | – | – | –
30 | Cc1c(C(=O)NC2CCOCC2)cc(-c2cc(C(F)(F)F)cc(C3(C)CC3)c2)n1CC1CCCCC1 [17/297] | 7.2 | 7.4 | 126 nM | – | – | –
31 | Cc1c(C(=O)N[C@H]2C[C@H](C(=O)O)C2)cc(-c2cc(Cl)cc(C(=O)NC(C)(C)C)c2)n1CC1CCCCC1 [17/298] | 5.9 | 6.0 | 2510 nM | – | – | –
32 | Cc1c(C(=O)N[C@H]2C[C@H](C(=O)O)C2)cc(-c2cc(Cl)cc(C3(C)CC3)c2)n1CC1CCCCC1 [17/299] | 7.1 | 7.5 | 5010 nM | – | – | –
33 | Cc1c(C(=O)N[C@H]2C[C@H](C(=O)O)C2)cc(-c2cc(C(F)(F)F)cc(C3(C)CC3)c2)n1CC1CCCCC1 [17/300] | 7.3 | 7.6 | 794 nM | – | – | –
34 | Cc1c(C(=O)NC23CCC(C(=O)O)(CC2)C3)cc(-c2cc(C(C)(C)O)cc(C3(C)CC3)c2)n1CC1CCCCC1 [17/301] | 7.6 | 7.6 | 2000 nM | – | – | –
35 | Cc1c(C(=O)NC23CCC(C(=O)O)(CC2)CC3)cc(-c2cc(C(C)(C)O)cc(C3(C)CC3)c2)n1CC1CCCCC1 [17/302] | 7.3 | 7.2 | 1580 nM | – | – | –
36 | COC(C)(C)c1cc(-c2cc(C(=O)NC3CCOCC3)c(C)n2CC2CCCCC2)cc(C(C)NC(C)C)c1 (stereo not drawn) [17/303] | 6.3 | 6.4 | 3980 nM | – | – | –
37 | Cc1c(C(=O)N[C@H]2C[C@H](C(=O)O)C2)cc(-c2cc(C(C)(C)C)cc(C(F)(F)F)c2)n1CC1CCCCC1 [17/304] | 7.2 | 7.3 | 1580 nM | – | – | –
38 | Cc1c(C(=O)NCCC(C)(C)C(=O)O)cc(-c2cc(C(C)(C)C)cc(C(F)(F)F)c2)n1CC1CCCCC1 [17/305] | – | – | – | 5.7/6.8/6.7 | 5.7/6.8/6.7 | 2000 nM
39 | Cc1c(C(=O)NC2CCOCC2)cc(-c2cc(C(C)(C)O)cc(C(F)(F)F)c2)n1CC1CCCCC1 [17/306] | 6.8 | 6.9 | 1580 nM | – | – | –
40 | Cc1c(C(=O)N[C@H]2C[C@H](C(=O)O)C2)cc(-c2cc(C(C)(C)O)cc(C(F)(F)F)c2)n1CC1CCCCC1 [17/307] | 6.2 | 6.0 | 3160 nM | – | – | –
41 | Cc1c(C(=O)NCCC(C)(C)C(=O)O)cc(-c2cc(C(C)(C)O)cc(C(F)(F)F)c2)n1CC1CCCCC1 [17/308] | 6.5 | 6.4 | 6310 nM | – | – | –

— patent publication US9815851B2, “Pyrrolo carboxamides as modulators of orphan nuclear receptor RAR-related orphan receptor-gamma (RORγ, NR1F3) activity and for the treatment of chronic inflammatory and autoimmune diseases” (PHENEX PHARMACEUTICALS AG, priority 2011, dated 2017)
